For 42 compounds, photoluminescence quantum yield results are on record in the Deep4Chem optical property database.

A short description of this data set: photoluminescence quantum yield (fraction); solvent given as SMILES.
[1] abbreviates: in c1cc(-n2c3ccccc3c3ccccc32)cc(-n2c3ccccc3c3ccccc32)c1.

With `Nc1cccc2cn[nH]c12`, the photoluminescence quantum yield (in CC#N) worked out at 0.3, the photoluminescence quantum yield (in CO) stood at 0.11 and the photoluminescence quantum yield (in O) is 0.07.

Turning to `Cc1ccc(-c2ccc(/C=C/c3ccccc3)cn2)nc1`, the photoluminescence quantum yield (in CC#N) worked out at 0.67.

Take `Cc1ccc(/C(C#N)=C/c2cc(/C=C(\C#N)c3ccc(C)cc3)c(-c3ccc(N(c4ccccc4)c4ccccc4)cc3)cc2-c2ccc(N(c3ccccc3)c3ccccc3)cc2)cc1`: the photoluminescence quantum yield reads like this: (in C1CCCCC1) 0.093; (in C1CCOC1) 0.045; (in CCCCCC) 0.121; (in CCOC(C)=O) 0.049; (in Cc1ccccc1) 0.06; (in ClC(Cl)Cl) 0.048. Also, the photoluminescence quantum yield (in ClCCl) is 0.028.

Turning to `O=P1(c2ccccc2)c2cccc3c4c5ccccc5c5ccccc5c4c4ccc1n4c23` (stereo unspecified), where the note is “in ClCCl”, the photoluminescence quantum yield stood at 0.97.

`Cc1ccc(-c2nc3c([nH]2)C2=CC(=O)S[C@]2(C)[C@@]2(C)SC(=O)C=C32)cc1` gave a photoluminescence quantum yield (in CC#N) of 0.14.

In the case of `COC(=O)c1nc2cnc(N)nc2n1Cc1ccccc1`, the photoluminescence quantum yield runs as follows: (in C1COCCO1) 0.64; (in CC#N) 0.55; (in CO) 0.87; (in ClCCl) 0.42; (in O) 0.95.

Consider `O=C(c1ccc(N2c3ccccc3Oc3ccccc32)cc1)c1ccc(N2c3ccccc3Oc3ccccc32)cc1`, for which the photoluminescence quantum yield (in Cc1ccccc1) was determined as 0.44 and the photoluminescence quantum yield under setting [1] was found to be 0.7.

Compound `COc1ccc2n1[B-](F)(F)[N+]1=C(c3ccccc3)C=CC1=C2c1ccc(C)cc1` yielded a photoluminescence quantum yield (in C1CCCCC1) of 0.28; a photoluminescence quantum yield (in C1CCOC1) of 0.3; a photoluminescence quantum yield (in C1COCCO1) of 0.36; a photoluminescence quantum yield (in CCOC(C)=O) of 0.28; a photoluminescence quantum yield (in CO) of 0.23; a photoluminescence quantum yield (in Cc1ccccc1) of 0.51. The compound further registered a photoluminescence quantum yield (in ClC(Cl)Cl) of 0.38.

Regarding `Cn1nc(-c2ccccc2)c2n[nH]nc2c1=O`, the photoluminescence quantum yield runs as follows: (in CC#N) 0.34; (in CCO) 0.21; (in Cc1ccccc1) 0.23.

With `N#Cc1ccc(N)cc1`, the photoluminescence quantum yield amounted to 0.13 (in C1CCCCC1); 0.12 (in CC#N); 0.09 (in CCCCCC); 0.041 (in CCO); 0.0046 (in O); 0.0052 (in OCC(F)(F)F).

In the case of `c1ccc(-c2nnc(-c3ccc(N4c5ccccc5N(c5ccccc5)c5ccccc54)cc3)n2-c2ccccc2)cc1`, the photoluminescence quantum yield reads like this: (in Cc1ccccc1) 0.07; under setting [1], 0.42.

`CCCCN1C(=O)C(=C/C=C/C=C2N(CCCC)c3ccccc3N2CCCC)C(=O)N(CCCC)C1=S`: the photoluminescence quantum yield worked out at 0.115 (in CCCCCC); 0.013 (in CCO); 0.023 (in CN(C)C=O); 0.168 (in Cc1ccccc1); 0.046 (in ClC(Cl)Cl); 0.032 (in ClCCl).

For the compound `COC(=O)COc1ccc(/C=C/C2=[N+]3C(=C(c4ccccc4)c4c(C)cc(C)n4[B-]3(F)F)C(C)=C2)cc1`, the photoluminescence quantum yield (in CO) came to 1.

For `COC(=O)c1nc2c(N(C)C)nc(N)nc2n1Cc1ccccc1`, the photoluminescence quantum yield runs as follows: (in C1COCCO1) 0.95; (in CC#N) 0.83; (in CO) 0.39; (in ClCCl) 0.95.

`N#Cc1ccc2nc3[nH]c(=O)[nH]c(=O)c3nc2c1` had a photoluminescence quantum yield (in ClCCCl) of 0.022.

`C[Si]1(C)c2ccccc2-c2ccccc21` yielded a photoluminescence quantum yield (in ClCCl) of 0.14.

As for `CCCCCOc1cc2oc(=O)c3c4ccc(C#N)cc4c4ccc5cccc6c(c1)c2c3c4c56`, for the setting “in C1CCOC1”, the photoluminescence quantum yield came out at 0.499.

Regarding `COc1ccc(N(c2ccc(OC)cc2)c2cc3ccc4cc(B(c5c(C)cc(C)cc5C)c5c(C)cc(C)cc5C)cc5ccc(c2)c3c45)cc1`, the photoluminescence quantum yield worked out at 0.44 (in C1CCOC1); 0.21 (in CC(C)=O); 0.22 (in CCCCCC); 0.27 (in Cc1ccccc1); 0.23 (in ClC(Cl)Cl); 0.42 (in ClCCl).

In turn, `Cc1ccc(C2=C3C=CC(c4ccccc4)=[N+]3[B-](F)(F)n3c(Cl)ccc32)cc1` gave a photoluminescence quantum yield (in C1CCCCC1) of 0.076; a photoluminescence quantum yield (in C1CCOC1) of 0.084; a photoluminescence quantum yield (in C1COCCO1) of 0.079; a photoluminescence quantum yield (in CCOC(C)=O) of 0.046; a photoluminescence quantum yield (in CO) of 0.037; a photoluminescence quantum yield (in Cc1ccccc1) of 0.13. Besides, under “in ClC(Cl)Cl”, the photoluminescence quantum yield is 0.095.

Consider `C/C=C/c1cccc(OC)c1`, for which the photoluminescence quantum yield is, setting by setting: (in CC#N) 0.24; (in CCCCCC) 0.31.

In turn, `COc1ccc(C2=C(c3ccc(OC)cc3)C(c3ccc(OC)cc3)=[N+]3C2=C(c2ccc(OC)cc2)c2c(-c4ccc(OC)cc4)c(-c4ccc(OC)cc4)c(-c4ccc(OC)cc4)n2[B-]3(F)F)cc1` came in with a photoluminescence quantum yield (in C1CCOC1) of 0.26.

Consider `CC[N+]1(CC)CN2C(=N1)C(C(=O)O)=Cc1cc(Cl)ccc12`, for which, where the note is “in O”, the photoluminescence quantum yield is 0.352.

The compound `O=c1c2ccccc2nc2ccccn12` came in with a photoluminescence quantum yield (in ClCCl) of 0.96.

As to `COC(=O)c1ccc2c3ccc(C(=O)OC)c4c(C(=O)OC)ccc(c5ccc(C(=O)OC)c1c25)c43`, the photoluminescence quantum yield (in C1COCCO1) is 0.99; the photoluminescence quantum yield (in CC#N) was found to be 0.97; the photoluminescence quantum yield (in CC(C)=O) was 0.99; the photoluminescence quantum yield (in CC(C)O) was determined as 0.96; the photoluminescence quantum yield (in CCCCO) worked out at 0.96; the photoluminescence quantum yield (in CN(C)C=O) was 0.95. For the same compound, the photoluminescence quantum yield by setting is: (in CO) 0.99; (in ClC(Cl)Cl) 0.83.

`CCCCCCN1C(=O)c2cccc3cc(/N=C\c4cnc5ccccc5c4)cc(c23)C1=O` returned a photoluminescence quantum yield (in ClC(Cl)Cl) of 0.006.

In turn, `O=C(c1ccc2c3c(cccc13)-c1cccc3c1C2CC=C3)c1c(CCc2ccccc2)c2ccc3cccc4c5cccc6ccc1c(c65)c2c34` (stereo unspecified) came in with a photoluminescence quantum yield (in ClCCl) of 0.17.

Take `CCN(CC)c1ccc2cc(/C=C/C(=O)/C=C(O)/C=C/c3cc4ccc(N(CC)CC)cc4oc3=O)c(=O)oc2c1`: the photoluminescence quantum yield worked out at 0.62 (in C1CCOC1); 0.66 (in C1COCCO1); 0.06 (in CC#N); 0.2 (in CC(C)=O); 0.56 (in CCOC(C)=O); 0.05 (in CS(C)=O). Besides, the photoluminescence quantum yield worked out at 0.76 (in Cc1ccccc1), 0.45 (in ClC(Cl)Cl) and 0.44 (in ClCCl).

The compound `COc1ccc(/C=C/c2nc3ccccc3o2)cc1` had a photoluminescence quantum yield (in C1CCCCC1) of 0.006 and a photoluminescence quantum yield (in CO) of 0.001.

As for `CC(C)(C(=O)c1ccc(N2c3ccccc3Oc3ccccc32)cc1)C(=O)c1ccc(N2c3ccccc3Oc3ccccc32)cc1`, the photoluminescence quantum yield (in c1ccc2c(c1)c1ccccc1n2-c1ccc(-c2ccc(-n3c4ccccc4c4ccccc43)cc2)cc1) turned out to be 0.54.

For the compound `CCN(CC)c1ccc2c(c1)oc(=O)c1c(C)nc3c(cnn3-c3ccccc3)c12`, the photoluminescence quantum yield came to 0.931 (in C1CCCCC1); 0.685 (in CCOC(C)=O); 0.37 (in CN(C)C=O); 0.294 (in CO); 0.829 (in ClCCl).

In the case of `CCOC(=O)C1=C(C)NC2=C(C(=O)c3ccccc32)C1c1ccc(N(C)C)cc1` (stereo unspecified), the photoluminescence quantum yield is, setting by setting: (in C1CCOC1) 0.34; (in C1COCCO1) 0.43; (in CC#N) 0.3; (in CCO) 0.092; (in CN(C)C=O) 0.33; (in CO) 0.035. Also, the photoluminescence quantum yield runs as follows: (in CS(C)=O) 0.29; (in ClC(Cl)(Cl)Cl) 0.16; (in ClC(Cl)Cl) 0.44; (in ClCCl) 0.4.

With `CCn1c2ccccc2c2ccc(C#N)cc21`, the photoluminescence quantum yield (in C1CCCCC1) was determined as 0.12.

Under “in ClC(Cl)Cl”, `F[B-]1(F)n2c(ccc2-c2cccs2)C(c2ccc(Br)cc2)=C2C=CC(c3cccs3)=[N+]21` displayed a photoluminescence quantum yield of 0.82.

As to `O=P1(c2ccccc2)c2cccc3ccc4ccc1n4c23` (stereo unspecified), where the note is “in ClCCl”, the photoluminescence quantum yield is 0.36.

For `COc1cc(OC)c2c(c1)C(=O)c1ccc(OC)cc1-2`, the photoluminescence quantum yield by setting is: (in C1CCCCC1) 0.0095; (in CC#N) 0.0012; (in CCO) 0.

For the compound `COCCOCCOCCNc1cc2c3c(c(NCCOCCOCCOC)cc4c3c1C(=O)N(CCOCCOCCOC)C4=O)C(=O)N(CCOCCOCCOC)C2=O`, the photoluminescence quantum yield came out at 0.33 (in CO), 0.56 (in ClC(Cl)Cl) and 0.039 (in O).

With `F[B-]1(F)OC(c2ccccc2)=Cc2c3ccccc3c3ccccc3[n+]21`, the photoluminescence quantum yield (in ClC(Cl)Cl) worked out at 0.131.

`N#Cc1nc(-c2ccc(N3c4ccccc4Oc4ccccc43)cc2)c(-c2ccc(N3c4ccccc4Oc4ccccc43)cc2)nc1C#N` displayed a photoluminescence quantum yield (in c1cc(-c2cccc(-n3c4ccccc4c4ccccc43)c2)cc(-n2c3ccccc3c3ccccc32)c1) of 0.15.

Turning to `CN1CCCc2cc(C3=Cc4cccc[n+]4[B-](F)(F)O3)ccc21`, for the setting “in ClC(Cl)Cl”, the photoluminescence quantum yield came out at 0.55.

Under “in CCOC(C)=O”, `c1cc2ccc3cc4[nH]ccc4c4ccc(c1)c2c34` yielded a photoluminescence quantum yield of 0.95.

For `c1cc2ccc3ccc(-n4c5ccccc5c5ccccc54)c4ccc(c1)c2c34`, the photoluminescence quantum yield turned out to be 0.26 (in CCCCCC), 0.38 (in CCO), 0.29 (in CCOC(C)=O) and 0.44 (in ClCCl).

`CCCCCCCCN1c2ccc(C#Cc3ccc(F)cc3)cc2Sc2cc(C=O)ccc21`: the photoluminescence quantum yield came out at 0.64 (in C1CCOC1); 0.24 (in CC#N); 0.48 (in CCCCCC); 0.07 (in CO); 0.75 (in CS(C)=O); 0.52 (in Cc1ccccc1). Further, the photoluminescence quantum yield (in ClC(Cl)Cl) worked out at 0.4.
